In ChEMBL document CHEMBL4680175, “Sulfonamide-based ring-fused analogues for CAN508 as novel carbonic anhydrase inhibitors endowed with antitumor activity: Design, synthesis, and in vitro biological evaluation” (Eur J Med Chem, 2020):

Experiments:
[1] = target: Cyclin-dependent kinase 2/cyclin E1 (Homo sapiens, UniProt P24941); assay: Inhibition of CDK2/cyclin E (unknown origin) expressed in baculovirus infected Sf21 insect cells using histone H1 as substrate in presence of [gamma33P]ATP
Carbonic anhydrase 1 = Carbonic anhydrase 1 (Homo sapiens, UniProt P00915); assay: Inhibition of recombinant human carbonic anhydrase 1 preincubated with enzyme for 15 mins by phenol red dye based stopped flow CO2 hydrase assay
CDK9/cyclin T1 = CDK9/cyclin T1 (Homo sapiens, UniProt P50750); assay: Inhibition of human full-length N-terminal GST/His6-tagged CDK9 (1 to 372 residues)/His6-tagged Cyclin-T1 (1 to 726 residues) expressed in sf9 cells using (YSPTSPS)2KK peptide as substrate in presence of [gamma33P]ATP
Carbonic anhydrase 2 = Carbonic anhydrase 2 (Homo sapiens, UniProt P00918); assay: Inhibition of recombinant human carbonic anhydrase 2 preincubated with enzyme for 15 mins by phenol red dye based stopped flow CO2 hydrase assay
Carbonic anhydrase 12 = Carbonic anhydrase 12 (Homo sapiens, UniProt O43570); assay: Inhibition of recombinant human carbonic anhydrase 12 preincubated with enzyme for 15 mins by phenol red dye based stopped flow CO2 hydrase assay
Carbonic anhydrase 9 = Carbonic anhydrase 9 (Homo sapiens, UniProt Q16790); assay: Inhibition of recombinant human carbonic anhydrase 9 preincubated with enzyme for 15 mins by phenol red dye based stopped flow CO2 hydrase assay

Chain of Carbonic anhydrase 12 (O43570 whole entry): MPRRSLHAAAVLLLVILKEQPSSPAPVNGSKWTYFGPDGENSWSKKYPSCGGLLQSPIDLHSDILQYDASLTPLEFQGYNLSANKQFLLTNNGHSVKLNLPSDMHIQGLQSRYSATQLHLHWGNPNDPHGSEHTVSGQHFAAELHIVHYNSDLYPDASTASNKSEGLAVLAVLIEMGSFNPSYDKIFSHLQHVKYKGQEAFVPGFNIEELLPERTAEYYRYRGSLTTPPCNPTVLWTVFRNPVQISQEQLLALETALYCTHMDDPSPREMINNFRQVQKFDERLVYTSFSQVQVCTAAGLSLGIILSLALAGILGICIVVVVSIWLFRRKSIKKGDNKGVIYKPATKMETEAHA
Chain of Carbonic anhydrase 1 (P00915 whole entry, the tested form may be a part): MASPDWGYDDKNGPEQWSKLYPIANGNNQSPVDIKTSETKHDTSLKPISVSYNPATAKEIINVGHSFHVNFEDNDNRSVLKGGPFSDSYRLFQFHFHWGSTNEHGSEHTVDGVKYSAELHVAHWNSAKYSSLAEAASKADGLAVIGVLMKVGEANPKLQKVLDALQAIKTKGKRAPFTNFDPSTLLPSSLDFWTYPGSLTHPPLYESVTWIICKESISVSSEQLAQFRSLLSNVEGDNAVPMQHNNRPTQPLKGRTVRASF
Chain of CDK9/cyclin T1 (O60563 whole entry, the tested form may be a part): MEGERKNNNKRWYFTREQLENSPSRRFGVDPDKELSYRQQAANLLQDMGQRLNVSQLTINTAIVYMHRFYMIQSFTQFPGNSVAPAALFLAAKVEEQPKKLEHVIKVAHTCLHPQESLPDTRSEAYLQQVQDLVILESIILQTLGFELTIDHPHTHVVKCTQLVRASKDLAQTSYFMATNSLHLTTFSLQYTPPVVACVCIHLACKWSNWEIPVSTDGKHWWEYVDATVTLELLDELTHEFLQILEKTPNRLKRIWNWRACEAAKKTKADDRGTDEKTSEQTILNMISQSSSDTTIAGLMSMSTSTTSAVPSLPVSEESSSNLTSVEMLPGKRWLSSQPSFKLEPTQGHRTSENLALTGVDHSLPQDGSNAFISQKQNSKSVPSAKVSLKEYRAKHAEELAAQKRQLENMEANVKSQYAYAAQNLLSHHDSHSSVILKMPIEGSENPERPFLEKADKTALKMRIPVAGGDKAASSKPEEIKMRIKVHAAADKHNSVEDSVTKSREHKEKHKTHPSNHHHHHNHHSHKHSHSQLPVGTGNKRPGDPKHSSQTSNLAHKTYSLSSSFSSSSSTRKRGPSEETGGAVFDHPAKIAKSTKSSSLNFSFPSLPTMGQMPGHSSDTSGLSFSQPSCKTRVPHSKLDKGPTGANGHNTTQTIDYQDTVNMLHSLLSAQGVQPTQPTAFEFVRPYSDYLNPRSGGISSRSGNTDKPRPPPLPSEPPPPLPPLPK
Chain of CDK9/cyclin T1 (P50750 whole entry, the tested form may be a part): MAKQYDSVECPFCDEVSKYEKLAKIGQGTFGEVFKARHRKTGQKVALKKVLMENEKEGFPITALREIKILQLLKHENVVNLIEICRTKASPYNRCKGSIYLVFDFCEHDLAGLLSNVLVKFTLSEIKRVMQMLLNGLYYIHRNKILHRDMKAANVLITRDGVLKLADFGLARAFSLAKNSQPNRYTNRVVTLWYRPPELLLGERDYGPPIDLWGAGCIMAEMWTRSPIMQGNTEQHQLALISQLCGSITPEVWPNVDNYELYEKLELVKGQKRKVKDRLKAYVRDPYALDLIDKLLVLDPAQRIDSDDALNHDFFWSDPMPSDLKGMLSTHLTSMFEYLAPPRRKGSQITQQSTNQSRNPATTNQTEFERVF

| IC50 [1] | Ki (Carbonic anhydrase 1) | IC50 (CDK9/cyclin T1) | Ki (Carbonic anhydrase 2) | Ki (Carbonic anhydrase 12) | Ki (Carbonic anhydrase 9) | SMILES |
| --- | --- | --- | --- | --- | --- | --- |
| > 12500 nM | 458 nM | > 12500 nM | 27.6 nM | 25.4 nM | 31.8 nM | Nc1nn2c(-c3ccccc3)ccnc2c1/N=N/c1ccc(S(N)(=O)=O)cc1 |
| > 12500 nM | 1150 nM | > 12500 nM | 7.1 nM | 59 nM | 40.1 nM | Nc1nn2c(-c3cccs3)ccnc2c1/N=N/c1ccc(S(N)(=O)=O)cc1 |
| > 12500 nM | 442 nM | > 12500 nM | 5.5 nM | 88.6 nM | 29.3 nM | COc1ccc(-c2ccnc3c(/N=N/c4ccc(S(N)(=O)=O)cc4)c(N)nn23)cc1 |
